{"source": "patent US12038432B2", "about": "“Organoids related to immunotherapy and methods of preparing and using the same” (Wake Forest University Health Sciences, priority 2018, dated 2024)", "key": {"[1]": {"test_system": "PTOs derived from a melanoma patient (Non-Responder)", "test": "LIVE/DEAD imaging of tumor organoids derived from a non-responder melanoma patient", "type": "cell-based, human", "settings": "FIG. 1C", "description": "(§1) Drug screen output metrics: Drugs will be administered for 48 hours, after which efficacy will be determined as follows; specifically, viability of cells will be assessed by (LIVE/DEAD), number of viable cells alone, number of viable cells versus dead cells, mitochondrial metabolism (MTS), LDH quantification (positive in tumor cells), and IHC (colocalization of fluorescently labeled immune cells with apoptotic, proliferative, and tumor cell markers)."}, "[2]": {"test_system": "melanoma", "test": "Clinical response of melanoma patients to treatment", "type": "in vivo, human", "settings": "stage III and IV melanoma patients of Example 7"}, "[3]": {"test_system": "low-grade appendiceal tumor-node organoids", "test": "LIVE/DEAD imaging of appendiceal tumor organoids with and without node cells", "type": "cell-based, human", "settings": "FIG. 1B; for LIVE/DEAD imaging, drug effectiveness: appendiceal tumor organoids with and without node cells; for cell death (LIVE/DEAD staining): low-grade appendiceal tumor-node organoids", "description": "as §1"}, "[4]": {"test_system": "melanoma tumor organoid", "test": "Drug screen, cell viability of melanoma tumor organoid with or without lymph node cells (FIG. 5)", "type": "cell-based, human", "settings": "decrease observed only when the organoid included both tumor cells and lymph node cells", "description": "Organoid-device integration: HA and gelatin/collagen components are mixed with cells, as well as a crosslinker and photoinitiator for photopolymerization in situ. Cells are added to the gel precursor preferably at a density of 20 million cells/mL or higher, after which the cell-gel mixture introduced to the microfluidic chambers sequentially and patterning is accomplished using a positive-tone photomask to define shape and location of constructs (FIG. 3B). For the proposed studies, each device will contain series of 2 chamber circuits in which one chamber will be formed a tumor organoid and in the other will be formed a lymph node organoid. Alternatively, both organoids can exist separately, but in the same chamber (FIG. 2). In another form factor, tumor cells and immune cells can be photopatterned into the device as adjacent regions, in which for the immune cells to successfully target the tumor cells, they are forced to recognize tumor cell antigens, activate, and migrate to the tumor region. (FIGS. 4A-4C). […]\nDrug screen output metrics: Drug efficacy will be determined by: viability of cells (LIVE/DEAD), number of viable cells alone, number of viable cells versus dead cells, mitochondrial metabolism (MTS), LDH quantification (positive in tumor cells), and IHC (Annexin V vs. KI67-apoptotic vs. proliferative markers)."}, "[5]": {"test_system": "3D patient-specific mixed melanoma/node organoids", "test": "Personalized immunotherapy screening on mixed melanoma/node organoids (live/dead staining and metabolism assays)", "type": "cell-based, human", "settings": "fourth patient's mixed melanoma/node organoids; 72 hours", "from_the_text": "Methods: Surgically obtained matched melanoma and lymph node biospecimens from the same patient were transferred to the laboratory, washed with saline, antibiotic, and red blood cell lysis buffer. Biospecimens were dissociated, and incorporated into an ECM-based hydrogel system and biofabricated into 3D patient-specific mixed melanoma/node organoids. Cells were not sorted for tumor, as to preserve tumor heterogeneity, including stroma and immune cell components. […] Quantification of live/dead staining and metabolism assays, recorded relative drug efficacy in killing melanoma cells for a particular patient. Light microscopy, IHC and next generation sequencing (NGS) were used to compare tumor melanoma cells with organoid melanoma cells."}, "[6]": {"test_system": "PTOs", "test": "Exposure of patient tumor organoids (PTOs) to immune checkpoint inhibitors, tolerance", "type": "cell-based", "settings": "~100 nM concentrations; unless immune cells are activated", "from_the_text": "Potential immune checkpoint inhibitor treatment. […] Concentrations of these two widely-used PD-1 inhibitors and one widely-used CTLA-4 inhibitor will be derived from clinical treatment guidelines and scaled to the volume of the PTO."}, "[7]": {"test_system": "colorectal tumor-node organoids", "test": "Mitochondrial metabolism of colorectal patient tumor organoids with or without matched lymph node immune cells", "type": "cell-based, human", "settings": "integrated colorectal tumor-node organoids; seen only when immune cells are present; FIG. 1A", "description": "as §1, with “markers). […] This was not expected given the BRAF wild status of the patient. […] The alternative therapy was identified by PTO screen more than 4 weeks prior to genomic sequencing that verified a MEK mutation, thus qualifying the patient for trametinib.” for “markers).”"}}, "note": "“Also recorded” adds a separate entry of the source."}
{"substance": "dabrafenib and trametinib [dabrafenic/trametinib]", "values": [{"measurement": "organoid response (LIVE/DEAD staining)", "setting": "[1]", "value": "increased DEAD staining"}, {"measurement": "organoid response (LIVE/DEAD staining)", "setting": "[1]; listed as dabrafenib and trametinib", "value": "did respond"}]}
{"substance": "ipilimumab [ipilumimab]", "values": [{"measurement": "organoid response (LIVE/DEAD staining)", "setting": "[1]", "value": "did not respond"}]}
{"substance": "nivolumab", "values": [{"measurement": "patient clinical response", "setting": "[2]", "value": "clinically progressed"}, {"measurement": "LIVE/DEAD imaging, drug effectiveness", "setting": "[3]", "value": "effective only when immune cell (lymph) population was incorporated"}, {"measurement": "cell death (LIVE/DEAD staining)", "setting": "[3]", "value": "increases in cell death"}, {"measurement": "organoid viability, measured by overall metabolic activity", "setting": "[4]", "value": "significant decrease"}, {"measurement": "melanoma killing", "setting": "[5]", "value": 50, "unit": "%"}, {"measurement": "effect on the PTOs", "setting": "[6]", "value": "no negative effect"}, {"measurement": "mitochondrial metabolism", "setting": "[7]", "value": "an increase in mitochondrial metabolism; also recorded: Increased metabolism"}]}
{"substance": "pembrolizumab", "values": [{"measurement": "LIVE/DEAD imaging, drug effectiveness", "setting": "[3]", "value": "effective only when immune cell (lymph) population was incorporated"}, {"measurement": "cell death (LIVE/DEAD staining)", "setting": "[3]", "value": "increases in cell death"}, {"measurement": "organoid response (LIVE/DEAD staining)", "setting": "[1]", "value": "did not respond"}, {"measurement": "organoid viability, measured by overall metabolic activity", "setting": "[4]", "value": "significant decrease"}, {"measurement": "effect on the PTOs", "setting": "[6]", "value": "no negative effect"}]}
